{"source": "patent US20070134326A1", "about": "“Composition for releasing a weak base for an extended period of time” (priority 2003, published 2007)", "key": {"pH dependent solubility": {"test": "pH dependent solubility", "format": "physicochemical", "details": "around pH 2 vs around pH 7"}, "glucose utilization": {"test_system": "glucose utilization", "details": "PK/PD model estimate, diabetic patients; FDA Briefing Document, Avandia IND 43,468; cited from earlier work"}}}
{"smiles": "CN(CCOc1ccc(CC2SC(=O)NC2=O)cc1)c1ccccn1", "note": "(centres unmarked) [Compound A, 5-[4-[2-(N-methyl-N-(2pyridyl)amino)ethoxy]benzyl]thiazolidine-2,4-dione]", "values": [{"measurement": "pH dependent solubility", "setting": "pH dependent solubility", "value": "more soluble in the acidic conditions of the stomach (around pH 2) than in the near neutral conditions of the lower intestine (around pH 7)"}, {"measurement": "concentration associated with half-maximal stimulation (SC50) of glucose utilization", "setting": "glucose utilization", "value": "~52", "unit": "ng/mL"}]}
